Test results: ChEMBL document CHEMBL1201862, “PubChem BioAssay data set” (2004)
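How tested: cells in 96-well plates exposed to compound for 48 hours at five concentrations. GI50 marks 50% less growth.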 The source made the active and inactive calls. Rule as the data show it: active = GI50 up to about 1.1 µM and inactive = higher.

Assays:
Assay in all cases: DTP human tumour cell line panel, 48 h
DMS-273 = test system: DMS-273
DLD-1 = test system: DLD-1
SNB-78 = test system: SNB-78
HOP-18 = test system: HOP-18
LXFL 529 = test system: LXFL 529
XF498 = test system: XF498
DMS-114 = test system: DMS-114
M19-MEL = test system: M19-MEL
RXF 631 = test system: RXF 631

Measured: GI50

S=c1sc2c(Cl)ncnc2n1-c1ccccc1
inactive: DMS-273 1.51 µM | DLD-1 11.5 µM | SNB-78 10.5 µM | HOP-18 19 µM | LXFL 529 12.4 µM | XF498 15.2 µM | DMS-114 13.6 µM | M19-MEL 3.8 µM

CSC1CC2C(CC1(C)SC)C2(C)C (configuration not stated)
inactive: DMS-273 45.4 µM | DLD-1 58.1 µM | SNB-78 74.3 µM | LXFL 529 > 100 µM | XF498 19.7 µM | M19-MEL 37.2 µM

CC1C(c2ccccc2)=CCON1c1ccccc1 (configuration not stated)
inactive: DLD-1 > 100 µM | SNB-78 > 100 µM | LXFL 529 > 100 µM | XF498 > 100 µM | DMS-114 > 100 µM | M19-MEL > 100 µM

CC(=O)O[C@H]1CCC2[C@@H]3CCC4=C(O)c5nocc5C[C@]4(C)C3CC[C@@]21C (some centres not stated)
inactive: DMS-273 > 100 µM | SNB-78 > 100 µM | HOP-18 > 100 µM | LXFL 529 > 100 µM | XF498 > 100 µM | DMS-114 > 100 µM | M19-MEL > 100 µM

NC(=O)/C(=N\NC(=O)C[n+]1ccccc1)C1NC(=O)NC1=O (configuration not stated)
inactive: DMS-273 > 100 µM | DLD-1 > 100 µM | SNB-78 > 100 µM | HOP-18 > 100 µM | LXFL 529 > 100 µM | RXF 631 > 100 µM | XF498 > 100 µM | DMS-114 > 100 µM | M19-MEL > 100 µM

CCCC(=O)c1c(NOC2OC(COC(C)=O)C(OC(C)=O)C(OC(C)=O)C2OC(C)=O)nc(OC)n(C)c1=O (configuration not stated)
inactive: DMS-273 > 100 µM | DLD-1 > 100 µM | SNB-78 > 100 µM | LXFL 529 > 100 µM | XF498 > 100 µM | DMS-114 > 100 µM | M19-MEL > 100 µM

CCCCN(CC)CC(C(C)=O)c1c(O)c2ccccc2oc1=O (configuration not stated)
inactive: DMS-273 > 100 µM | DLD-1 > 100 µM | SNB-78 > 100 µM | HOP-18 > 100 µM | LXFL 529 > 100 µM | XF498 > 100 µM | DMS-114 > 100 µM | M19-MEL > 100 µM

O=c1[nH]cnc2c1nnn2C1C=C(CO)C(O)C1O (configuration not stated)
inactive: DMS-273 23.5 µM | DLD-1 > 100 µM | SNB-78 > 100 µM | HOP-18 > 100 µM | LXFL 529 > 100 µM | XF498 > 100 µM | DMS-114 59.2 µM | M19-MEL > 100 µM

Cc1ccc(S(=O)(=O)OCC23CCC(C4CC42)C2CC23)cc1 (configuration not stated)
inactive: DMS-273 68.2 µM | DLD-1 > 100 µM | HOP-18 > 100 µM | LXFL 529 65 µM | RXF 631 > 100 µM | DMS-114 37.5 µM | M19-MEL 60.7 µM

C[C@]12CCC3[C@@H](CC[C@@H]4c5nonc5CC[C@]34C)C1CC[C@@H]2O (some centres not stated)
inactive: DMS-273 23.9 µM | DLD-1 26.3 µM | SNB-78 38.6 µM | HOP-18 36.4 µM | LXFL 529 37 µM | RXF 631 33.1 µM | XF498 20.3 µM | DMS-114 29.2 µM | M19-MEL 48 µM

COc1cc(/C=C2\NC(=S)C3Cc4c(OC)c(C)c(OC)c(OC)c4C2N3C)c(OC)c(C)c1OC (configuration not stated)
inactive: DMS-273 46.9 µM | DLD-1 51.1 µM | HOP-18 27.8 µM | LXFL 529 28.8 µM | DMS-114 27.5 µM | M19-MEL 45.6 µM

CCOC(=O)C(C(=O)c1ccccc1-c1ccccc1C(=O)O)=P(c1ccccc1)(c1ccccc1)c1ccccc1
inactive: DMS-273 31.8 µM | LXFL 529 24.9 µM | RXF 631 37.8 µM | XF498 23.3 µM | DMS-114 20.1 µM | M19-MEL 27.8 µM
